Literature values in patent publication US20250255842A1, “S[…]-RESOLVING LIPID MEDIATORS FOR TREATING LONG COVID-19” (Solutex GC, S.L., priority 2022, published 2025).

Tested on: thrombus
Details: administration of RvD4; less neutrophil infiltration, more pro-resolving monocytes

CC/C=C\C[C@H](O)/C=C/C=C\C\C=C/C=C/C=C/[C@@H](O)[C@@H](O)CCC(=O)O [RvD4, 4S,5R,17S-trihydroxy-6E,8E,10Z,13Z,15E,19Z-docosahexaenoic acid]
Thrombus burden: significantly reduced
